Where a name gives a salt, the structure may show the parent alone. Read-outs that look alike come from different tables or passages of the source.
Key:
recombinant NLuc = type: biochemical
[1] = system: SARS-CoV-2-ΔOrf7a-NLuc virus; assay: microbe, parasite or virus in culture; type: cell-based
[2] = recombinant NLuc activity relative to DMSO
[3] = recombinant NLuc, first read column
[4] = recombinant NLuc, fourth read column
[5] = recombinant NLuc, third read column

Compound | Relative Recombinant NLUC (recombinant NLuc; [2]) | Reads Counts per second (read 1) (recombinant NLuc; [3]) [Counts per second] | Reads Counts per second (read 4) (recombinant NLuc; [4]) [Counts per second] | Reads Counts per second (read 2) (recombinant NLuc; recombinant NLuc) [Counts per second] | Reads Counts per second (read 3) (recombinant NLuc; [5]) [Counts per second] | % activity in Vero 100PFU screen [1] [%] | Reads Counts per second (read 1) (recombinant NLuc) [Counts per second] | Reads Counts per second (read 3) (recombinant NLuc) [Counts per second] | Reads Counts per second (read 4) (recombinant NLuc) [Counts per second] | Relative Recombinant NLUC (recombinant NLuc)
C=CCNC1=C2C[C@@H](C)C[C@H](OC)[C@H](O)[C@@H](C)/C=C(\C)[C@H](OC(N)=O)[C@@H](OC)/C=C\C=C(/C)C(=O)NC(=CC1=O)C2=O [17-AAG (KOS953), 17-AAG] | 0.9121 | 339450 | 348179 | 347084 | 343744 | 209 | – | – | – | –
CC[C@@H]1/C=C(\C)C[C@H](C)C[C@H](OC)[C@H]2O[C@@](O)(C(=O)C(=O)N3CCCC[C@H]3C(=O)O[C@H](/C(C)=C/[C@@H]3CC[C@@H](O)[C@H](OC)C3)[C@H](C)[C@@H](O)CC1=O)[C@H](C)C[C@@H]2OC [Ascomycin(FK 520), Ascomycin] | 0.8402 | 312887 | 314498 | 325360 | 316950 | 171 | – | – | – | –
C[C@](N)(Cc1ccc(O)c(O)c1)C(=O)O [Methyldopa] | 0.9666 | 361429 | 367357 | – | 364798 | 175 | – | – | – | –
Bivalirudin Trifluoroacetate | 0.8139 | 309590 | 301908 | 311058 | 307409 | 172 | – | – | – | –
CNCCC(Oc1ccc(C(F)(F)F)cc1)c1ccccc1.Cl (stereo not shown) [Fluoxetine HCl] | – | 317425 | 307707 | – | 314163 | 2.12 | – | – | – | –
Cc1[nH]cnc1CN1CCc2c(c3ccccc3n2C)C1=O [Alosetron Hydrochloride] | 0.8898 | 328498 | 339698 | 338671 | 337783 | 177 | – | – | – | –
(+)-Catechin hydrate | 0.9621 | 362209 | 367703 | 357899 | 366108 | 160 | – | – | – | –
O=C(O)/C=C/c1ccc(O)c(O)c1 [Caffeic acid] | 1.054 | 390077 | 403178 | – | 399891 | 173 | – | – | – | –
O=C([O-])CC(O)(CC(=O)[O-])C(=O)[O-].[Li+].[Li+].[Li+] [Lithium Citrate] | 0.9217 | 343238 | 343490 | – | 350985 | 205 | – | – | – | –
NC(=O)CC[C@H](N)C(=O)O [L-Glutamine] | 0.9419 | 349150 | 350740 | – | 361792 | 204 | – | – | – | –
Cc1ccnc2c1NC(=O)c1cccnc1N2C1CC1 [Nevirapine] | 0.9932 | 371882 | 373316 | – | 379254 | 187 | – | – | – | –
COc1ccccc1OCC(O)CN1CCN(CC(=O)Nc2c(C)cccc2C)CC1 (stereo not shown) [Ranolazine] | 0.9679 | 359507 | 367791 | – | 367539 | 167 | – | – | – | –
C[C@H](CCC(=O)O)[C@H]1CC[C@H]2[C@@H]3CC[C@@H]4C[C@H](O)CC[C@]4(C)[C@H]3CC[C@]12C [Lithocholic Acid] | 0.9342 | 350340 | 353302 | – | 350189 | 205 | – | – | – | –
C[N+]1(C)CCCC(OC(=O)C(O)(c2ccccc2)c2ccccc2)C1 (stereo not shown) [Mepenzolate Bromide] | – | – | – | – | – | 175 | 330221 | 339233 | 336213 | 0.8896
O=C(O)[C@H]1O[C@@H](Oc2cc3oc(-c4ccccc4)cc(=O)c3c(O)c2O)[C@H](O)[C@@H](O)[C@@H]1O [Baicalin] | 0.9439 | 353023 | 357276 | 358945 | 357158 | 164 | – | – | – | –
O=S(=O)(O)c1cc(O)ccc1O [Ethamsylate] | 1.029 | 388357 | 386776 | – | 391647 | 167 | – | – | – | –
CN(C(=O)CN(CCO)CC(=O)N(C)C(C)(C)Cc1ccccc1)C(C)(C)Cc1ccccc1 [Oxethazaine] | 0.8736 | 330534 | 321724 | – | 331517 | 167 | – | – | – | –
Cn1c(=O)cc(N2CCC[C@@H](N)C2)n(Cc2ccccc2C#N)c1=O [Alogliptin Benzoate] | 0.863 | 316906 | 323679 | 332493 | 331161 | 166 | – | – | – | –
COc1ccc2c(c1OC)C(=O)O[C@@H]2[C@H]1c2c(cc3c(c2OC)OCO3)CCN1C [Noscapine HCl] | 0.9502 | 358232 | 354994 | – | 362883 | 213 | – | – | – | –
N[C@@H](Cc1ccc(O)c(O)c1)C(=O)O [Levodopa] | 0.839 | 304150 | 316577 | – | 322065 | 233 | – | – | – | –

Source: article PMC8428568, “Discovery of re-purposed drugs that slow SARS-CoV-2 replication in human cells” (PLoS Pathogens, 2021)
